Tests used:
[1] = target: T1, Human immunodeficiency virus type 1 integrase (Human immunodeficiency virus 1, UniProt Q7ZJM1); experiment: Inhibition of HIV1 integrase strand transfer step
[2] = target: T1, Human immunodeficiency virus type 1 integrase; experiment: Inhibition of HIV1 integrase 3'-processing step

T1 sequence (Q7ZJM1 whole entry): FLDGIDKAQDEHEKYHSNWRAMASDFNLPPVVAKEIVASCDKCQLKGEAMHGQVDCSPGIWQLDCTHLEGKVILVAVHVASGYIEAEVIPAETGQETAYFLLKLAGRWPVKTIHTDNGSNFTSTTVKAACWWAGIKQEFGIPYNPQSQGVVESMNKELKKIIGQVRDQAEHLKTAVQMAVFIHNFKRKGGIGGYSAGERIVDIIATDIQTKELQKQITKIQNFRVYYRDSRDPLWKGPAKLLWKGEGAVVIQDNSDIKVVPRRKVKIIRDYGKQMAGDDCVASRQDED

IC50 [1] [µM]	IC50 [2] [µM]	Compound
10	100	O=C(O)C(=O)/C=C(/O)c1nc2cncnc2n1Cc1ccccc1
4.1	31.5	O=C(O)C(=O)/C=C(/O)c1nc2c(=O)n(Cc3ccccc3)cnc2n1Cc1ccccc1
790	1000	O=C(O)C(=O)/C=C(\O)c1ncnc2c1ncn2Cc1ccccc1
2.7	30	O=C(O)C(=O)/C=C(\O)c1nc2c(ncn2Cc2ccccc2)c(=O)n1Cc1ccccc1

Source: ChEMBL document CHEMBL1146924, “Beta-diketo acids with purine nucleobase scaffolds: novel, selective inhibitors of the strand transfer step of HIV integrase” (Bioorg Med Chem Lett, 2006)
